Experimental data: ChEMBL document CHEMBL1201862, “PubChem BioAssay data set” (2004)
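Cells were grown in 96-well plates and exposed to each compound for 48 hours at five concentrations; endpoints were interpolated linearly between bracketing concentrations, or set to the highest concentration if not reached. GI50 marks 50% less growth.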 Calls of active or inactive are those of the source. No stated cut-off is given here; in the data, active = GI50 up to about 1.1 µM and inactive = higher.

Tests used:
Assay in all cases: NCI anticancer screen, dose series, 48 h
[1] = tested on: MOLT-4
[2] = tested on: A498
[3] = tested on: OVCAR-8
[4] = tested on: HOP-92
[5] = tested on: SK-OV-3
[6] = tested on: ACHN
[7] = tested on: NCI-H522
[8] = tested on: NCI-H460
[9] = tested on: Hs-578T
[10] = tested on: LOX IMVI
[11] = tested on: MDA-MB-435
[12] = tested on: NCI-H23
[13] = tested on: SNB-19
[14] = tested on: OVCAR-4
[15] = tested on: HCT-116
[16] = tested on: SNB-75
[17] = tested on: SK-MEL-5
[18] = tested on: U-251
[19] = tested on: COLO 205
[20] = tested on: M14
[21] = tested on: MDA-N
[22] = tested on: 786-0
[23] = tested on: HOP-62
[24] = tested on: RPMI-8226
[25] = tested on: DU-145
[26] = tested on: CAKI-1
[27] = tested on: A549
[28] = tested on: TK-10
[29] = tested on: SF-268
[30] = tested on: HL-60
[31] = tested on: UACC-62
[32] = tested on: SF-539
[33] = tested on: T47D
[34] = tested on: SW-620
[35] = tested on: OVCAR-5
[36] = tested on: CCRF-CEM
[37] = tested on: HCC 2998
[38] = tested on: EKVX
[39] = tested on: K562
[40] = tested on: IGROV-1
[41] = tested on: SK-MEL-2
[42] = tested on: HT-29
[43] = tested on: HCT-15
[44] = tested on: BT-549
[45] = tested on: UO-31
[46] = tested on: PC-3
[47] = tested on: OVCAR-3
[48] = tested on: KM12
[49] = tested on: SF-295
[50] = tested on: MCF7
[51] = tested on: NCI/ADR-RES
[52] = tested on: UACC-257
[53] = tested on: RXF 393
[54] = tested on: NCI-H226
[55] = tested on: SN12C
[56] = tested on: MDA-MB-231
[57] = tested on: Malme-3M
[58] = tested on: SK-MEL-28
[59] = tested on: SR

## CCCNC(=S)N/C=C1\C(=O)Nc2ccccc2C1=O
[1]
  GI50: > 100 µM (inactive)
[2]
  GI50: > 100 µM (inactive)
[3]
  GI50: > 100 µM (inactive)
[4]
  GI50: > 100 µM (inactive)
[5]
  GI50: > 100 µM (inactive)
[6]
  GI50: > 100 µM (inactive)
[7]
  GI50: > 100 µM (inactive)
[8]
  GI50: > 100 µM (inactive)
[9]
  GI50: > 100 µM (inactive)
[10]
  GI50: > 100 µM (inactive)
[11]
  GI50: > 100 µM (inactive)
[12]
  GI50: > 100 µM (inactive)
[13]
  GI50: > 100 µM (inactive)
[14]
  GI50: > 100 µM (inactive)
[15]
  GI50: > 100 µM (inactive)
[16]
  GI50: 83.2 µM (inactive)
[17]
  GI50: > 100 µM (inactive)
[18]
  GI50: > 100 µM (inactive)
[19]
  GI50: > 100 µM (inactive)
[20]
  GI50: > 100 µM (inactive)
[21]
  GI50: > 100 µM (inactive)
[22]
  GI50: > 100 µM (inactive)
[23]
  GI50: > 100 µM (inactive)
[24]
  GI50: > 100 µM (inactive)
[25]
  GI50: > 100 µM (inactive)
[26]
  GI50: > 100 µM (inactive)
[27]
  GI50: > 100 µM (inactive)
[28]
  GI50: > 100 µM (inactive)
[29]
  GI50: > 100 µM (inactive)
[30]
  GI50: > 100 µM (inactive)
[31]
  GI50: > 100 µM (inactive)
[32]
  GI50: > 100 µM (inactive)
[33]
  GI50: > 100 µM (inactive)
[34]
  GI50: > 100 µM (inactive)
[35]
  GI50: > 100 µM (inactive)
[36]
  GI50: > 100 µM (inactive)
[37]
  GI50: > 100 µM (inactive)
[38]
  GI50: > 100 µM (inactive)
[39]
  GI50: > 100 µM (inactive)
[40]
  GI50: > 100 µM (inactive)
[41]
  GI50: > 100 µM (inactive)
[42]
  GI50: > 100 µM (inactive)
[43]
  GI50: > 100 µM
[44]
  GI50: > 100 µM (inactive)
[45]
  GI50: > 100 µM (inactive)
[46]
  GI50: > 100 µM (inactive)
[47]
  GI50: > 100 µM (inactive)
[48]
  GI50: > 100 µM (inactive)
[49]
  GI50: > 100 µM (inactive)
[50]
  GI50: > 100 µM (inactive)
[51]
  GI50: > 100 µM (inactive)
[52]
  GI50: > 100 µM (inactive)
[53]
  GI50: > 100 µM (inactive)
[54]
  GI50: > 100 µM (inactive)
[55]
  GI50: > 100 µM (inactive)
[56]
  GI50: > 100 µM (inactive)

## O=c1[nH]nc(Cc2ccc([N+](=O)[O-])cc2)n1CCO
[2]
  GI50: > 100 µM (inactive)
[3]
  GI50: > 100 µM (inactive)
[4]
  GI50: > 100 µM (inactive)
[5]
  GI50: > 100 µM (inactive)
[6]
  GI50: > 100 µM (inactive)
[7]
  GI50: > 100 µM (inactive)
[8]
  GI50: > 100 µM (inactive)
[57]
  GI50: > 100 µM (inactive)
[9]
  GI50: > 100 µM (inactive)
[10]
  GI50: > 100 µM (inactive)
[11]
  GI50: > 100 µM (inactive)
[12]
  GI50: > 100 µM (inactive)
[58]
  GI50: > 100 µM (inactive)
[13]
  GI50: > 100 µM (inactive)
[14]
  GI50: > 100 µM (inactive)
[15]
  GI50: > 100 µM (inactive)
[17]
  GI50: > 100 µM (inactive)
[18]
  GI50: > 100 µM (inactive)
[19]
  GI50: > 100 µM (inactive)
[20]
  GI50: > 100 µM (inactive)
[21]
  GI50: > 100 µM (inactive)
[22]
  GI50: > 100 µM (inactive)
[24]
  GI50: > 100 µM (inactive)
[25]
  GI50: > 100 µM (inactive)
[26]
  GI50: > 100 µM (inactive)
[27]
  GI50: > 100 µM (inactive)
[28]
  GI50: > 100 µM (inactive)
[29]
  GI50: > 100 µM (inactive)
[30]
  GI50: > 100 µM (inactive)
[31]
  GI50: > 100 µM (inactive)
[32]
  GI50: > 100 µM (inactive)
[33]
  GI50: > 100 µM (inactive)
[34]
  GI50: > 100 µM (inactive)
[35]
  GI50: > 100 µM (inactive)
[37]
  GI50: > 100 µM (inactive)
[38]
  GI50: > 100 µM (inactive)
[39]
  GI50: > 100 µM (inactive)
[40]
  GI50: > 100 µM (inactive)
[41]
  GI50: > 100 µM (inactive)
[42]
  GI50: > 100 µM (inactive)
[43]
  GI50: > 100 µM
[44]
  GI50: > 100 µM (inactive)
[45]
  GI50: > 100 µM (inactive)
[46]
  GI50: > 100 µM (inactive)
[47]
  GI50: > 100 µM (inactive)
[48]
  GI50: > 100 µM (inactive)
[49]
  GI50: > 100 µM (inactive)
[50]
  GI50: > 100 µM (inactive)
[51]
  GI50: > 100 µM (inactive)
[52]
  GI50: > 100 µM (inactive)
[54]
  GI50: > 100 µM (inactive)
[55]
  GI50: > 100 µM (inactive)
[56]
  GI50: > 100 µM (inactive)

## O=C1CCC2(CCO1)OCCO2
[1]
  GI50: > 100 µM (inactive)
[3]
  GI50: > 100 µM (inactive)
[5]
  GI50: > 100 µM (inactive)
[6]
  GI50: > 100 µM (inactive)
[7]
  GI50: > 100 µM (inactive)
[8]
  GI50: > 100 µM (inactive)
[57]
  GI50: > 100 µM (inactive)
[9]
  GI50: > 100 µM (inactive)
[10]
  GI50: > 100 µM (inactive)
[11]
  GI50: > 100 µM (inactive)
[12]
  GI50: > 100 µM (inactive)
[58]
  GI50: > 100 µM (inactive)
[13]
  GI50: > 100 µM (inactive)
[14]
  GI50: > 100 µM (inactive)
[15]
  GI50: > 100 µM (inactive)
[16]
  GI50: > 100 µM (inactive)
[17]
  GI50: > 100 µM (inactive)
[18]
  GI50: > 100 µM (inactive)
[20]
  GI50: > 100 µM (inactive)
[21]
  GI50: > 100 µM (inactive)
[22]
  GI50: > 100 µM (inactive)
[23]
  GI50: > 100 µM (inactive)
[25]
  GI50: > 100 µM (inactive)
[26]
  GI50: > 100 µM (inactive)
[27]
  GI50: > 100 µM (inactive)
[28]
  GI50: > 100 µM (inactive)
[29]
  GI50: > 100 µM (inactive)
[30]
  GI50: > 100 µM (inactive)
[31]
  GI50: > 100 µM (inactive)
[32]
  GI50: > 100 µM (inactive)
[33]
  GI50: > 100 µM (inactive)
[34]
  GI50: > 100 µM (inactive)
[35]
  GI50: > 100 µM (inactive)
[36]
  GI50: > 100 µM (inactive)
[37]
  GI50: > 100 µM (inactive)
[38]
  GI50: > 100 µM (inactive)
[39]
  GI50: > 100 µM (inactive)
[40]
  GI50: > 100 µM (inactive)
[41]
  GI50: > 100 µM (inactive)
[42]
  GI50: > 100 µM (inactive)
[43]
  GI50: > 100 µM
[44]
  GI50: > 100 µM (inactive)
[45]
  GI50: > 100 µM (inactive)
[46]
  GI50: > 100 µM (inactive)
[47]
  GI50: > 100 µM (inactive)
[48]
  GI50: > 100 µM (inactive)
[49]
  GI50: > 100 µM (inactive)
[50]
  GI50: > 100 µM (inactive)
[51]
  GI50: > 100 µM (inactive)
[52]
  GI50: > 100 µM (inactive)
[53]
  GI50: > 100 µM (inactive)
[54]
  GI50: > 100 µM (inactive)
[55]
  GI50: > 100 µM (inactive)
[59]
  GI50: > 100 µM (inactive)
[56]
  GI50: > 100 µM (inactive)
